One assay addresses T1, PDGFRalpha(V561D) (Homo sapiens, UniProt P16234, V561D).
T1 construct: recombinant human PDGFRalpha, amino acids 550end containing the V561 D mutation; 6His (N)
In words: PDGFRalpha(V561D) assay. The assay is classed as biochemical. As to conditions: recombinant human PDGFRalpha aa 550-end, 200 μM ATP, 1.4E-06 means 1.4×10^−6, read-out: Inhibition (IC50) of PDGFRα (V561D). A digest of the protocol:
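Radiometric filter-binding assay: substrate phosphorylation by recombinant N-His-tagged human PDGFRα 550-end V561D was quenched with 3% phosphoric acid after 40 min at room temperature, then counted.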

The next assay deals with T2, c-Kit(V654A) (Homo sapiens, UniProt P10721, V654A).
T2 construct: amino acids 544-end containing the V654A mutation; GST (N)
T2 sequence (P10721 544-976 V654A): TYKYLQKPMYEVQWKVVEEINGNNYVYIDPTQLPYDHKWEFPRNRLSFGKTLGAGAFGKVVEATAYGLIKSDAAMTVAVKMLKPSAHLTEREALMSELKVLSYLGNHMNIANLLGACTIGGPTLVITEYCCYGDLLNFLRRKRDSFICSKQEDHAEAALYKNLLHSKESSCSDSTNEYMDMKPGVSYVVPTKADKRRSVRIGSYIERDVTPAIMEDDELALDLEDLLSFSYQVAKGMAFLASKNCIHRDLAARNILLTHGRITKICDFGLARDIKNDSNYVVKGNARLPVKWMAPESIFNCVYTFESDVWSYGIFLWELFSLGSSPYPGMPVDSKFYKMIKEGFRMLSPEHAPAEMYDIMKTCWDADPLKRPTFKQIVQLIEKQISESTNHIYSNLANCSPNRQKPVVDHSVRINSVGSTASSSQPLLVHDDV
The assay is described as follows: c-Kit(V654A) assay. The assay is classed as biochemical. As to conditions: recombinant human c-Kit aa 544-end, 200 μM ATP, 1.4E-06 means 1.4×10^−6, read-out: Inhibition (IC50) of c-KIT (V654A). In a few lines:
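Radiometric filter-binding read-out: substrate 33P incorporation counted by scintillation after P30 filtermat washes in 75 mM phosphoric acid and methanol. Enzyme: N-GST recombinant human c-Kit aa 544-end carrying V654A.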

pIC50: −log10 of the molar value. Where a name gives a salt, the structure may show the parent alone.

T1 sequence (P16234 550-1089 V561D): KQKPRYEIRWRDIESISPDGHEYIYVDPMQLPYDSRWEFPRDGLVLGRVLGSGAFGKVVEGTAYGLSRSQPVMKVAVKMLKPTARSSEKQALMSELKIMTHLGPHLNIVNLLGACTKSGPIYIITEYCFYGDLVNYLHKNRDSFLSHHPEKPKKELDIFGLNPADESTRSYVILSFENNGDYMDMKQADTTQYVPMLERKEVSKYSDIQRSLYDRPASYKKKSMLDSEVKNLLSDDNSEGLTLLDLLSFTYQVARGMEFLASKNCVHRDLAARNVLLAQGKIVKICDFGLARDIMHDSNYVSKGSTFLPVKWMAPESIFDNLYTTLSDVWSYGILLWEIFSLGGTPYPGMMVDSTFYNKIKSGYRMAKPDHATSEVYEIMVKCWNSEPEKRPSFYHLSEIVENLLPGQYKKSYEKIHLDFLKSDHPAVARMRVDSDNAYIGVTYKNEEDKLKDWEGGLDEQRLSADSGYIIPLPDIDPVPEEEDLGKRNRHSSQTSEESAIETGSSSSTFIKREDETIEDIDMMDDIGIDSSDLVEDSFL

Usually pIC50 stands for −log10 of the IC50, conventionally taken in molar units. As for `CN1CCN(C(=O)COc2ccc(-n3cc(-c4cc5cc(F)ccc5[nH]c4=O)nn3)cc2)CC1` [A165, 6-fluoro-3-(1-{4-[2-(4-methyl-piperazin-1-yl)-2-oxo-ethoxy]-phenyl}-1H-[1,2,3]triazol-4-yl)-1H-quinolin-2-one], the pIC50 was 7.48 at PDGFRalpha(V561D) and 7.52 at c-Kit(V654A).
On the same counts, the results for `O=C(c1cccc(-n2cc(-c3cc4cc(F)ccc4[nH]c3=O)nn2)c1)N1CCNCC1` [A125, 6-fluoro-3-{1-[3-(piperazine-1-carbonyl)-phenyl]-1H-[1,2,3]triazol-4-yl}-1H-quinolin-2-one] are 8.22 and 7.47.
For the compound `O=C(c1ccc(-n2cc(-c3cc4cc(F)ccc4[nH]c3=O)nn2)cc1)N1CCNC[C@H]1CO` [A315, 6-fluoro-3-{1-[4-((S)-2-hydroxymethyl-piperazine-1-carbonyl)-phenyl]-1H-[1,2,3]triazol-4-yl}-1H-quinolin-2-one], the pIC50 on PDGFRalpha(V561D) is 5.85; on c-Kit(V654A), 6.70.
For `N[C@@H]1CCCN(C(=O)c2ccc(-n3cc(-c4cc5cc(F)c(F)cc5[nH]c4=O)nn3)cc2)C1` [A309, 3-{1-[4-((R)-3-amino-piperidine-1-carbonyl)-phenyl]-1H-[1,2,3]triazol-4-yl}-6,7-difluoro-1H-quinolin-2-one hydrochloride], in that order: 6.89 and 7.20.
For `O=c1[nH]c2ccc(F)cc2cc1-c1cn(-c2ccc(S(=O)(=O)N3CCNCC3)cc2)nn1` [A129, 6-fluoro-3-{1-[4-(piperazine-1-sulfonyl)-phenyl]-1H-[1,2,3]triazol-4-yl}-1H-quinolin-2-one], in that order: 7.32 and 7.89.
`O=C1CNCCN1c1ccc(-n2cc(-c3cc4cc(F)c(F)cc4[nH]c3=O)nn2)cc1` [A145, 6,7-difluoro-3-{1-[4-(2-oxo-piperazin-1-yl)-phenyl]-1H-[1,2,3]triazol-4-yl}-1H-quinolin-2-one]: the negative-log IC50 (pIC50) at PDGFRalpha(V561D) was 6.74; at c-Kit(V654A) it was 7.66.
In the case of `O=c1[nH]c2cc(F)c(F)cc2cc1-c1cn(-c2ccc(OCCN3CCNCC3)cc2)nn1` [A130, 6,7-difluoro-3-{1-[4-(2-piperazin-1-yl-ethoxy)-phenyl]-1H-[1,2,3]triazol-4-yl}-1H-quinolin-2-one], the results for the pIC50 at PDGFRalpha(V561D) and at c-Kit(V654A) were 6.77 and 7.46, respectively.
On the same counts, the results for `CN1CCN(C(=O)c2ccc(-n3cc(-c4cc5ccncc5[nH]c4=O)nn3)cc2)CC1` [A63, 3-{1-[4-(4-methyl-piperazine-1-carbonyl)-phenyl]-1H-[1,2,3]triazol-4-yl}-1H-[1,7]naphthyridin-2-one] are 7.40 and 6.89.
On the same counts, the results for `O=C(c1ccc(-n2cc(-c3cc4cc(F)ccc4[nH]c3=O)nn2)cc1)N1C[C@H](O)CO1` [A276, 6-fluoro-3-{1-[4-((S)-4-hydroxy-isoxazolidine-2-carbonyl)-phenyl]-1H-[1,2,3]triazol-4-yl}-1H-quinolin-2-one] are 8.85 and 7.27.
In the case of `N[C@H]1CCCN(C(=O)c2ccc(-n3cc(-c4cc5cc(F)c(F)cc5[nH]c4=O)nn3)cc2)C1` [A310, 3-{1-[4-((S)-3-amino-piperidine-1-carbonyl)-phenyl]-1H-[1,2,3]triazol-4-yl}-6,7-difluoro-1H-quinolin-2-one hydrochloride], the pIC50 is 7.07 on PDGFRalpha(V561D) and 7.36 at c-Kit(V654A).
As to `O=C(c1ccc(-n2cc(-c3cc4cc(F)ccc4[nH]c3=O)nn2)cc1)N1CCN(C2COC2)CC1` [A230, 6-fluoro-3-{1-[4-(4-oxetan-3-yl-piperazine-1-carbonyl)-phenyl]-1H-[1,2,3]triazol-4-yl}-1H-quinolin-2-one], the pIC50 at PDGFRalpha(V561D) was 7.02; on c-Kit(V654A), 7.31.
In the case of `C=C(C)c1ccc(-n2cc(-c3cc4ccccc4[nH]c3=O)nn2)cc1` [A80, 3-[1-(4-isopropenyl-phenyl)-1H-[1,2,3]triazol-4-yl]-1H-quinolin-2-one], the results for the pIC50 at PDGFRalpha(V561D) and at c-Kit(V654A) were 7.36 and 6.92, respectively.
On to `O=C(c1ccc(-n2cc(-c3cc4cc(F)ccc4[nH]c3=O)nn2)cc1)N1CCOCC1` [A1, 6-fluoro-3-{1-[4-(morpholine-4-carbonyl)-phenyl]-1H-[1,2,3]triazol-4-yl}-1H-quinolin-2-one], for which the values for the pIC50 on PDGFRalpha(V561D) and at c-Kit(V654A) were 8.70 and 8.22, respectively.
With `COCC1CCN(C(=O)c2ccc(-n3cc(-c4cc5cc(F)c(F)cc5[nH]c4=O)nn3)cc2)C1` (stereo not shown) [A109, 6,7-difluoro-3-{1-[4-(3-methoxymethyl-pyrrolidine-1-carbonyl)-phenyl]-1H-[1,2,3]triazol-4-yl}-1H-quinolin-2-one], the pIC50 on PDGFRalpha(V561D) was 8.47; on c-Kit(V654A), 7.92.
On the same counts, the results for `O=c1[nH]c2ccccc2cc1-c1cn(-c2cnc(N3CCNCC3)nc2)nn1` [A54, 3-[1-(2-piperazin-1-yl-pyrimidin-5-yl)-1H-[1,2,3]triazol-4-yl]-1H-quinolin-2-one] are 6.80 and 6.31.
For `CN(C)C[C@H]1CCCN1C(=O)c1ccc(-n2cc(-c3cc4cc(Cl)ccc4[nH]c3=O)nn2)cc1` [A322, 6-chloro-3-{1-[4-((R)-2-dimethylaminomethyl-pyrrolidine-1-carbonyl)-phenyl]-1H-[1,2,3]triazol-4-yl}-1H-quinolin-2-one], the results for the pIC50 on PDGFRalpha(V561D) and at c-Kit(V654A) were 7.19 and 7.60, respectively.
On the same counts, the results for `O=c1[nH]c2cc(F)c(F)cc2cc1-c1cn(-c2ccc(CCN3CCCC3)cc2)nn1` [A115a, 6,7-difluoro-3-{1-[4-(2-pyrrolidin-1-yl-ethyl)-phenyl]-1H-[1,2,3]triazol-4-yl}-1H-quinolin-2-one] are 5.82 and 6.80.
Take `COC[C@@H]1CCN(C(=O)c2ccc(-n3cc(-c4cc5cc(F)ccc5[nH]c4=O)nn3)cc2)C1` [A199, 6-fluoro-3-{1-[4-((R)-3-methoxymethyl-pyrrolidine-1-carbonyl)-phenyl]-1H-[1,2,3]triazol-4-yl}-1H-quinolin-2-one]: the pIC50 is 7.66 at PDGFRalpha(V561D) and 7.80 at c-Kit(V654A).
Regarding `O=c1[nH]c2ccncc2cc1-c1cnn(-c2ccccc2)c1` [A46, 3-(1-phenyl-1H-pyrazol-4-yl)-1H-[1,6]naphthyridin-2-one], the results for the pIC50 at PDGFRalpha(V561D) and at c-Kit(V654A) were 6.82 and 6.43, respectively.
On the same counts, the results for `O=C(c1ccc(-n2cc(-c3cc4cc(F)ccc4[nH]c3=O)nn2)cc1)N1CCOC[C@H]1CO` [A213, 6-fluoro-3-{1-[4-((R)-3-hydroxymethyl-morpholine-4-carbonyl)-phenyl]-1H-[1,2,3]triazol-4-yl}-1H-quinolin-2-one] are 7.43 and 7.19.
For `O=C(c1ccc(-n2cc(-c3cc4cc(F)ccc4[nH]c3=O)nn2)cc1)N1CCC(N2CCC(O)CC2)C1` (stereo not shown) [A208, 6-fluoro-3-(1-{4-[3-(4-hydroxy-piperidin-1-yl)-pyrrolidine-1-carbonyl]-phenyl}-1H-[1,2,3]triazol-4-yl)-1H-quinolin-2-one], the pIC50 is 6.74 on PDGFRalpha(V561D) and 7.74 at c-Kit(V654A).
As for `CN1CCN(C(=O)c2cccc(-n3cc(-c4cc5ccccc5[nH]c4=O)nn3)c2)CC1` [A79, 3-{1-[3-(4-methyl-piperazine-1-carbonyl)-phenyl]-1H-[1,2,3]triazol-4-yl}-1H-quinolin-2-one], the pIC50 at PDGFRalpha(V561D) is 7.51; at c-Kit(V654A) it was 7.48.
For `CCN(CC)CC1CCN(C(=O)c2ccc(-n3cc(-c4cc5cc(F)c(F)cc5[nH]c4=O)nn3)cc2)C1` (stereo not shown) [A239, 3-{1-[4-(3-diethylaminomethyl-pyrrolidine-1-carbonyl)-phenyl]-1H-[1,2,3]triazol-4-yl}-6,7-difluoro-1H-quinolin-2-one], in that order: 5.92 and 6.48.
For the compound `O=C(c1ccc(-n2cc(-c3cc4cccc(F)c4[nH]c3=O)nn2)cc1)N1CCNCC1` [A120, 8-fluoro-3-{1-[4-(piperazine-1-carbonyl)-phenyl]-1H-[1,2,3]triazol-4-yl}-1H-quinolin-2-one], the pIC50 on PDGFRalpha(V561D) was 6.64; on c-Kit(V654A) it was 6.55.
For the compound `CN(C)C[C@H]1CCCN1C(=O)c1ccc(-n2cc(-c3cc4cc(F)ccc4[nH]c3=O)nn2)cc1` [A321, 3-{1-[4-((R)-2-dimethylaminomethyl-pyrrolidine-1-carbonyl)-phenyl]-1H-[1,2,3]triazol-4-yl}-6-fluoro-1H-quinolin-2-one], the pIC50 was 6.43 at PDGFRalpha(V561D) and 7.36 on c-Kit(V654A).
On the same counts, the results for `O=C(c1cccc(-n2cc(-c3cc4ccccc4[nH]c3=O)nn2)c1)N1CCNCC1` [A78, 3-{1-[3-(piperazine-1-carbonyl)-phenyl]-1H-[1,2,3]triazol-4-yl}-1H-quinolin-2-one] are 7.51 and 7.77.
With `O=C(c1ccc(-n2cc(-c3cc4cc(F)ccc4[nH]c3=O)nn2)cc1)N1CCC2(CC1)COC2` [A229, 6-fluoro-3-{1-[4-(2-oxa-7-aza-spiro[3.5]nonane-7-carbonyl)-phenyl]-1H-[1,2,3]triazol-4-yl}-1H-quinolin-2-one], the values for the pIC50 on PDGFRalpha(V561D) and at c-Kit(V654A) were 6.82 and 7.39, respectively.
Take `O=C(Cn1ccc2cc(-n3cc(-c4cc5cc(F)c(F)cc5[nH]c4=O)nn3)ccc21)N1CCNCC1` [A139, 6,7-difluoro-3-{1-[1-(2-oxo-2-piperazin-1-yl-ethyl)-1H-indol-5-yl]-1H-[1,2,3]triazol-4-yl}-1H-quinolin-2-one]: the pIC50 is 5.42 at PDGFRalpha(V561D) and 7.92 on c-Kit(V654A).
For `O=C(c1ccc(-n2cc(-c3cc4cnccc4[nH]c3=O)nn2)cc1)N1CCOCC1` [A41, 3-{1-[4-(morpholine-4-carbonyl)-phenyl]-1H-[1,2,3]triazol-4-yl}-1H-[1,6]naphthyridin-2-one], in that order: 7.36 and 6.62.

For the origin of these results see patent US11939314B2, “Quinolin-2-one derivatives” (MERCK PATENT GMBH, priority 2016, dated 2024).
